Data reported in US10683269B2 (MISSION THERAPEUTICS LIMITED, priority 2016, dated 2020).

Biological target: T1, USP7 (Homo sapiens, UniProt Q93009)
T1 construct: The USP7 construct was PCR amplified and cloned into a pFLAG-CMV-6a vector (Sigma-Aldrich) with an N-terminal FLAG tag; made in house; host or cells: HEK293T
Experiment: USP7 biochemical IC50 assay (fluorescence polarisation, TAMRA labelled peptide linked to ubiquitin via an iso-peptide bond)
Details: 30 min pre-incubation of enzyme and compound, read after 2 hr incubation at room temperature, read-out: IC50 range
Method: In Vitro USP7 Inhibition Assay
Expression and Purification of USP7
The USP7 construct was PCR amplified and cloned into a pFLAG-CMV-6a vector (Sigma-Aldrich) with an N-terminal FLAG tag. HEK293T cells were transfected with FLAG-USP7 using TransIT-LT1 transfection reagent (Mirus) according to the manufacturer's instructions. Cells were harvested 40 hours after transfection. […] The resin was washed two times with low salt buffer plus protease inhibitors (complete mini, Roche) and phosphatase inhibitors (PhosSTOP mini, Roche) and one time with high salt buffer (20 mM Tris, pH 7.5, 500 mM NaCl, 0.5 mM EDTA, 5 mM beta-mercaptoethanol, protease inhibitors (complete mini, Roche) and phosphatase inhibitors (PhosSTOP mini, Roche). To elute the bound USP7, elution buffer (10 mM Tris, pH 7.5, 150 mM NaCl, 0.5 mM EDTA, 10% glycerol, 0.5% NP40, 5 mM beta-mercaptoethanol, 0.15 mg/ml 3×FLAG peptide (Sigma-Aldrich)) was added to the resin and incubated at 4° C. for 2.5 hours rotating. The resin was centrifuged at 4000 rpm for 30 seconds, and the supernatant containing purified FLAG-USP7 was removed and stored at −80° C.
USP7 Biochemical IC50 Assay
A typical 8-point dilution series would be 100, 30, 10, 3, 1, 0.3, 0.1, 0.03 μM final. […] Either 1 μl of 50% DMSO or diluted compound was added to the plate. USP7 was diluted in reaction buffer (20 mM Tris, pH 7.5, 100 mM NaCl, 0.05% Tween 20, 0.5 mg/ml BSA, 5 mM—beta mercaptoethanol) to the equivalent of 0.0025 μl/well and 10 μl of diluted USP7 was added to the compound. Enzyme and compound were incubated for 30 min at room temp. Reactions were initiated by the addition of 50 nM of TAMRA labelled peptide linked to ubiquitin via an iso-peptide bond as fluorescence polarisation substrate. Reactions were read immediately after addition of substrate and following a 2 hr incubation at room temperature. Readings were performed on a Pherastar Plus (BMG Labtech). λ Excitation 540 nm; λ Emission 590 nm.

T1 sequence (Q93009 whole entry): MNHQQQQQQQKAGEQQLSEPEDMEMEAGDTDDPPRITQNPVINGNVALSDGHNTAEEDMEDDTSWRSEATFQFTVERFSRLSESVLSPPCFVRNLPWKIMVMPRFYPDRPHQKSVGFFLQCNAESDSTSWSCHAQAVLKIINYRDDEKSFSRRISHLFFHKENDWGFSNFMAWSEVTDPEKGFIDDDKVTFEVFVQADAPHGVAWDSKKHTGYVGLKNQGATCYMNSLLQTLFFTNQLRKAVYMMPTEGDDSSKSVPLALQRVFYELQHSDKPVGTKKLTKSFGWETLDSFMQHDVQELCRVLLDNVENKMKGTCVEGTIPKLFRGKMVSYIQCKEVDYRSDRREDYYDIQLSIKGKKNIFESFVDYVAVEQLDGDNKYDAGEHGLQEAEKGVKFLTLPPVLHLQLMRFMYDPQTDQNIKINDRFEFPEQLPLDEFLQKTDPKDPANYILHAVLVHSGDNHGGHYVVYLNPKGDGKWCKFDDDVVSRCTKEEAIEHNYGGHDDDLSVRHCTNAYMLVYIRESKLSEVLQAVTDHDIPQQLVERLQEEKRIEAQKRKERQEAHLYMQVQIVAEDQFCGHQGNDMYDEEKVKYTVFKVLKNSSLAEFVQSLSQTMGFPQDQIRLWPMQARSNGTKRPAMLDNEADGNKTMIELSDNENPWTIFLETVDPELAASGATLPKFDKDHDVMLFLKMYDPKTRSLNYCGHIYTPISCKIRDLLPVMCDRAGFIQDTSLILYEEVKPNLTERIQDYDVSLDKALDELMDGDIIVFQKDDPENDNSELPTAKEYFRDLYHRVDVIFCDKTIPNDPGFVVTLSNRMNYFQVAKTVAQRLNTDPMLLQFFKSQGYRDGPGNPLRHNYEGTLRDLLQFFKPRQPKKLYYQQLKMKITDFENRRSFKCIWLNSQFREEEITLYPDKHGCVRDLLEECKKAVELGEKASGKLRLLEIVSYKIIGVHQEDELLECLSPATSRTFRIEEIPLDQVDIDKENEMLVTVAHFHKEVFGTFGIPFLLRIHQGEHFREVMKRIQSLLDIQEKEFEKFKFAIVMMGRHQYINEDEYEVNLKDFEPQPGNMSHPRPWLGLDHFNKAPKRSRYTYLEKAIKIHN

IC50 [µM] | Structure (SMILES)
1 to 10 | N#CN1Cc2cccc(NC(=O)c3cccc(NC(=O)C4CC4)c3)c2C1 [Example 80, N-(2-cyanoisoindolin-4-yl)-3-(cyclopropanecarboxamido)benzamide]
1 to 10 | N#CN1Cc2cccc(NC(=O)c3ccc(-c4cccnc4)cc3)c2C1 [Example 81, N-(2-cyanoisoindolin-4-yl)-4-(pyridin-3-yl)benzamide]
1 to 10 | COc1cc2cc(C(=O)Nc3cccc4c3CN(C#N)C4)[nH]c2cn1 [Example 85, N-(2-cyanoisoindolin-4-yl)-5-methoxy-1H-pyrrolo[2,3-c]pyridine-2-carboxamide]
1 to 10 | N#CN1Cc2cccc(NC(=O)c3ccc(=O)n(Cc4ccccc4)c3)c2C1 [Example 87, 1-benzyl-N-(2-cyanoisoindolin-4-yl)-6-oxo-1,6-dihydropyridine-3-carboxamide]
1 to 10 | COC(=O)Nc1cccc(C(=O)Nc2cccc3c2CN(C#N)C3)c1 [Example 89, methyl (3-((2-cyanoisoindolin-4-yl)carbamoyl)phenyl)carbamate]
1 to 10 | N#CN1Cc2cccc(NC(=O)c3cccc(NC(=O)c4ccccc4)c3)c2C1 [Example 90, 3-benzamido-N-(2-cyanoisoindolin-4-yl)benzamide]
10 to 30 | N#CN1Cc2cccc(C(=O)NCc3ccccc3)c2C1 [Example 95, N-benzyl-2-cyanoisoindoline-4-carboxamide]
10 to 30 | Cn1cc(-c2nnc(-c3ccccc3)c3c2CN(C#N)C3)cn1 [Example 97, 1-(1-methyl-1H-pyrazol-4-yl)-4-phenyl-5,7-dihydro-6H-pyrrolo[3,4-c]pyridazine-6-carbonitrile]
1 to 10 | COC(=O)c1cc2c(c(-c3ccccc3)c1)CN(C#N)C2 [Example 98, methyl 2-cyano-7-phenylisoindoline-5-carboxylate]
10 to 30 | N#CN1Cc2ncnc(N3CCN(c4ccc(F)cc4F)CC3)c2C1 [Example 99, 4-(4-(2,4-difluorophenyl)piperazin-1-yl)-5H-pyrrolo[3,4-d]pyrimidine-6(7H)-carbonitrile]
10 to 30 | N#CN1Cc2ncnc(N3CCC(Oc4cccnc4)CC3)c2C1 [Example 101, 4-(4-(pyridin-3-yloxy)piperidin-1-yl)-5,7-dihydro-6H-pyrrolo[3,4-c]pyrimidine-6-carbonitrile]
1 to 10 | CC(=O)Nc1nc2c(c(-c3cccc(OC(F)(F)F)c3)n1)CN(C#N)C2 [Example 106, N-(6-cyano-4-(3-(trifluoromethoxy)phenyl)-6,7-dihydro-5H-pyrrolo[3,4-d]pyrimidin-2-yl)acetamide]
10 to 30 | CC(=O)Nc1nc2c(c(-c3cnn(C)c3)n1)CN(C#N)C2 [Example 107, N-(6-cyano-4-(1-methyl-1H-pyrazol-4-yl)-6,7-dihydro-5H-pyrrolo[3,4-d]pyrimidin-2-yl)acetamide]
1 to 10 | N#CN1Cc2nc(N[C@H]3CC[C@H](O)CC3)nc(-c3ccccc3)c2C1 [Example 110, 2-(((1R,4R)-4-hydroxycyclohexyl)amino)-4-phenyl-5H-pyrrolo[3,4-d]pyrimidine-6(7H)-carbonitrile]
1 to 10 | Cn1cc(Nc2nc3c(c(-c4ccccc4)n2)CN(C#N)C3)cn1 [Example 112, 2-((1-methyl-1H-pyrazol-4-yl)amino)-4-phenyl-5,7-dihydro-6H-pyrrolo[3,4-d]pyrimidine-6-carbonitrile]
1 to 10 | N#CN1Cc2nc(NCCc3ccccn3)nc(-c3ccccc3)c2C1 [Example 114, 4-phenyl-2-((2-(pyridin-2-yl)ethyl)amino)-5,7-dihydro-6H-pyrrolo[3,4-d]pyrimidine-6-carbonitrile]

The remaining lines, values behind:

Structure (SMILES) | IC50 [µM]
N#CN1Cc2cccc(NC(=O)c3ccc(-c4ccncc4)cc3)c2C1 [Example 82, N-(2-cyanoisoindolin-4-yl)-4-(pyridin-4-yl)benzamide] | 1 to 10
Cc1ccccc1-c1cc(C(=O)Nc2cccc3c2CN(C#N)C3)[nH]n1 [Example 83, N-(2-cyanoisoindolin-4-yl)-3-(o-tolyl)-1H-pyrazole-5-carboxamide] | 10 to 30
N#CN1Cc2cccc(NC(=O)c3csc(-c4ccccc4)n3)c2C1 [Example 84, N-(2-cyanoisoindolin-4-yl)-2-phenylthiazole-4-carboxamide] | 10 to 30
N#CN1Cc2cccc(NC(=O)c3cc(-c4cnccn4)[nH]n3)c2C1 [Example 86, N-(2-cyanoisoindolin-4-yl)-5-(pyrazin-2-yl)-1H-pyrazole-3-carboxamide] | 1 to 10
COCc1ccc(C(=O)Nc2cccc3c2CN(C#N)C3)cc1 [Example 88, N-(2-cyanoisoindolin-4-yl)-4-(methoxymethyl)benzamide] | 10 to 30
N#CN1Cc2cccc(NC(=O)c3ccc(CNC(=O)OCc4ccccc4)cc3)c2C1 [Example 91, benzyl (4-((2-cyanoisoindolin-4-yl)carbamoyl)benzyl carbamate] | 1 to 10
N#CN1Cc2cccc(NC(=O)c3ccc(S(=O)(=O)Nc4ccccc4)cc3)c2C1 [Example 92, N-(2-cyanoisoindolin-4-yl)-4-(N-phenylsulfamoyl)benzamide] | 1 to 10
N#CN1Cc2cccc(NC(=O)c3ccc(N4CCOCC4)s3)c2C1 [Example 93, N-(2-cyanoisoindolin-4-yl)-5-morpholinothiophene-2-carboxamide] | 1 to 10
CN1CCC(C(=O)Nc2ccc3c(c2)CN(C#N)C3)C1 (centres unmarked) [Example 94, N-(2-cyanoisoindolin-5-yl)-1-methylpyrrolidine-3-carboxamide] | 1 to 10
CC(=O)Nc1ccc2c(c1-c1ccccc1)CN(C#N)C2 [Example 96, N-(2-cyano-4-phenylisoindolin-5-yl)acetamide] | 1 to 10
N#CN1Cc2ncnc(N3Cc4ccccc4C3)c2C1 [Example 100, 4-(isoindolin-2-yl)-5,7-dihydro-6H-pyrrolo[3,4-c]pyrimidine-6-carbonitrile] | 1 to 10
COc1cccc(OC2CCN(c3ncnc4c3CN(C#N)C4)CC2)c1 [Example 102, 4-(4-(3-methoxyphenoxy)piperidin-1-yl)-5,7-dihydro-6H-pyrrolo[3,4-d]pyrimidine-6-carbonitrile] | 1 to 10
N#CN1Cc2ncnc(N3CCC(Oc4ccccc4C(N)=O)CC3)c2C1 [Example 103, 2-((1-(6-cyano-6,7-dihydro-5H-pyrrolo[3,4-d]pyrimidin-4-yl)piperidin-4-yl)oxy)benzamide] | 10 to 30
CC(=O)Nc1nc2c(c(-c3ccccc3)n1)CN(C#N)C2 [Example 104, N-(6-cyano-4-phenyl-6,7-dihydro-5H-pyrrolo[3,4-c]pyrimidin-2-yl)acetamide] | 1 to 10
CC(=O)Nc1nc2c(c(-c3cccc(C#N)c3)n1)CN(C#N)C2 [Example 105, N-(6-cyano-4-(3-cyanophenyl)-6,7-dihydro-5H-pyrrolo[3,4-c]pyrimidin-2-yl)acetamide] | 1 to 10
CC(=O)Nc1cccc(-c2nc(NC(C)=O)nc3c2CN(C#N)C3)c1 [Example 108, N-(3-(2-acetamido-6-cyano-6,7-dihydro-5H-pyrrolo[3,4-d]pyrimidin-4-yl)phenyl)acetamide] | 1 to 10
CC(=O)Nc1nc2c(c(-c3cccc(NS(C)(=O)=O)c3)n1)CN(C#N)C2 [Example 109, N-(6-cyano-4-(3-(methylsulfonamido)phenyl)-6,7-dihydro-5H-pyrrolo[3,4-d]pyrimidin-2-yl)acetamide] | 1 to 10
N#CN1Cc2nc(NCC3CCOCC3)nc(-c3ccccc3)c2C1 [Example 111, 4-phenyl-2-(((tetrahydro-2H-pyran-4-yl)methyl)amino)-5,7-dihydro-6H-pyrrolo[3,4-d]pyrimidine-6-carbonitrile] | 1 to 10
N#CN1Cc2nc(NCc3ncccn3)nc(-c3ccccc3)c2C1 [Example 113, 4-phenyl-2-((pyrimidin-2-ylmethyl)amino)-5,7-dihydro-6H-pyrrolo[3,4-d]pyrimidine-6-carbonitrile] | 1 to 10
N#CN1Cc2nc(NC3CCCc4ccccc43)nc(-c3ccccc3)c2C1 (centres unmarked) [Example 115, 4-phenyl-2-((1,2,3,4-tetrahydronaphthalen-1-yl)amino)-5,7-dihydro-6H-pyrrolo[3,4-d]pyrimidine-6-carbonitrile] | 10 to 30
N#CN1Cc2nc(Nc3ccccc3)nc(-c3ccccc3)c2C1 [Example 116, 4-phenyl-2-(phenylamino)-5,7-dihydro-6H-pyrrolo[3,4-d]pyrimidine-6-carbonitrile] | 1 to 10
N#CN1Cc2nc(NCc3ccccn3)nc(-c3ccccc3)c2C1 [Example 117, 4-phenyl-2-((pyridin-2-ylmethyl)amino)-5,7-dihydro-6H-pyrrolo[3,4-d]pyrimidine-6-carbonitrile] | 1 to 10
